# Results from PubChem BioAssay (NCI).
#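 Five compound concentrations were applied to cells in 96-well plates for 48 hours; endpoints were derived by simple linear interpolation of the resulting dose-response curve. Definition used: TGI = concentration required for complete inhibition of growth.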
# How the values were obtained:
# Test in all cases: inhibition of tumour cell growth, NCI panel, 48 h
# 786-0 renal = system: 786-0 renal
# A498 renal = system: A498 renal
# A549 NSCLC = system: A549 NSCLC
# ACHN renal = system: ACHN renal
# BT-549 breast = system: BT-549 breast
# CAKI-1 renal = system: CAKI-1 renal
# CCRF-CEM leukemia = system: CCRF-CEM leukemia
# COLO 205 colon = system: COLO 205 colon
# DU-145 prostate = system: DU-145 prostate
# EKVX NSCLC = system: EKVX NSCLC
# HCC-2998 colon = system: HCC-2998 colon
# HCT-116 colon = system: HCT-116 colon
# HCT-15 colon = system: HCT-15 colon
# HOP-62 NSCLC = system: HOP-62 NSCLC
# HS 578T breast = system: HS 578T breast
# HT29 colon = system: HT29 colon
# IGROV1 ovarian = system: IGROV1 ovarian
# K-562 leukemia = system: K-562 leukemia
# KM12 colon = system: KM12 colon
# LOX IMVI melanoma = system: LOX IMVI melanoma
# M14 melanoma = system: M14 melanoma
# MALME-3M melanoma = system: MALME-3M melanoma
# MCF7 breast = system: MCF7 breast
# MDA-MB-231 breast = system: MDA-MB-231 breast
# MDA-MB-435 = system: MDA-MB-435
# MDA-N = system: MDA-N
# MOLT-4 leukemia = system: MOLT-4 leukemia
# NCI-H23 lung = system: NCI-H23 lung
# NCI-H460 lung = system: NCI-H460 lung
# NCI-H522 lung = system: NCI-H522 lung
# NCI/ADR-RES ovarian = system: NCI/ADR-RES ovarian
# OVCAR-3 ovarian = system: OVCAR-3 ovarian
# OVCAR-4 ovarian = system: OVCAR-4 ovarian
# OVCAR-5 ovarian = system: OVCAR-5 ovarian
# OVCAR-8 ovarian = system: OVCAR-8 ovarian
# PC-3 prostate = system: PC-3 prostate
# RPMI-8226 leukemia = system: RPMI-8226 leukemia
# RXF 393 renal = system: RXF 393 renal
# SF-268 CNS = system: SF-268 CNS
# SF-295 CNS = system: SF-295 CNS
# SF-539 CNS = system: SF-539 CNS
# SK-MEL-2 melanoma = system: SK-MEL-2 melanoma
# SK-MEL-28 melanoma = system: SK-MEL-28 melanoma
# SK-MEL-5 melanoma = system: SK-MEL-5 melanoma
# SK-OV-3 ovarian = system: SK-OV-3 ovarian
# SN12C renal = system: SN12C renal
# SNB-19 CNS = system: SNB-19 CNS
# SR leukemia = system: SR leukemia
# SW-620 colon = system: SW-620 colon
# T-47D breast = system: T-47D breast
# TK-10 renal = system: TK-10 renal
# U251 CNS = system: U251 CNS
# UACC-257 melanoma = system: UACC-257 melanoma
# UACC-62 melanoma = system: UACC-62 melanoma
# UO-31 renal = system: UO-31 renal
# HOP-92 NSCLC = system: HOP-92 NSCLC
# NCI-H226 lung = system: NCI-H226 lung
# SNB-75 CNS = system: SNB-75 CNS
# HL-60(TB) leukemia = system: HL-60(TB) leukemia
compound,measurement,setting,value
Cc1ccc(S(=O)(=O)NCCN(CCNS(=O)(=O)c2ccc(C)cc2)S(=O)(=O)c2ccc(C)cc2)cc1,TGI,786-0 renal,> 100 µM
same,TGI,A498 renal,> 100 µM
same,TGI,A549 NSCLC,> 100 µM
same,TGI,ACHN renal,> 100 µM
same,TGI,BT-549 breast,> 100 µM
same,TGI,CAKI-1 renal,> 100 µM
same,TGI,CCRF-CEM leukemia,> 100 µM
same,TGI,COLO 205 colon,> 100 µM
same,TGI,DU-145 prostate,> 100 µM
same,TGI,EKVX NSCLC,> 100 µM
same,TGI,HCC-2998 colon,> 100 µM
same,TGI,HCT-116 colon,> 100 µM
same,TGI,HCT-15 colon,> 100 µM
same,TGI,HOP-62 NSCLC,> 100 µM
same,TGI,HS 578T breast,> 100 µM
same,TGI,HT29 colon,> 100 µM
same,TGI,IGROV1 ovarian,> 100 µM
same,TGI,K-562 leukemia,> 100 µM
same,TGI,KM12 colon,> 100 µM
same,TGI,LOX IMVI melanoma,> 100 µM
same,TGI,M14 melanoma,> 100 µM
same,TGI,MALME-3M melanoma,60 µM
same,TGI,MCF7 breast,> 100 µM
same,TGI,MDA-MB-231 breast,> 100 µM
same,TGI,MDA-MB-435,> 100 µM
same,TGI,MDA-N,> 100 µM
same,TGI,MOLT-4 leukemia,> 100 µM
same,TGI,NCI-H23 lung,> 100 µM
same,TGI,NCI-H460 lung,> 100 µM
same,TGI,NCI-H522 lung,> 100 µM
same,TGI,NCI/ADR-RES ovarian,> 100 µM
same,TGI,OVCAR-3 ovarian,> 100 µM
same,TGI,OVCAR-4 ovarian,56 µM
same,TGI,OVCAR-5 ovarian,> 100 µM
same,TGI,OVCAR-8 ovarian,> 100 µM
same,TGI,PC-3 prostate,> 100 µM
same,TGI,RPMI-8226 leukemia,> 100 µM
same,TGI,RXF 393 renal,> 100 µM
same,TGI,SF-268 CNS,> 100 µM
same,TGI,SF-295 CNS,> 100 µM
same,TGI,SF-539 CNS,> 100 µM
same,TGI,SK-MEL-2 melanoma,> 100 µM
same,TGI,SK-MEL-28 melanoma,> 100 µM
same,TGI,SK-MEL-5 melanoma,> 100 µM
same,TGI,SK-OV-3 ovarian,> 100 µM
same,TGI,SN12C renal,> 100 µM
same,TGI,SNB-19 CNS,> 100 µM
same,TGI,SR leukemia,> 100 µM
same,TGI,SW-620 colon,> 100 µM
same,TGI,T-47D breast,> 100 µM
same,TGI,TK-10 renal,> 100 µM
same,TGI,U251 CNS,> 100 µM
same,TGI,UACC-257 melanoma,> 100 µM
same,TGI,UACC-62 melanoma,> 100 µM
same,TGI,UO-31 renal,> 100 µM
Nc1ccn(C2OC(COP(=O)(O)OCC3OC(n4cc(F)c(=O)[nH]c4=O)CC3O)C(O)C2O)c(=O)n1 (configuration not stated),TGI,786-0 renal,> 100 µM
same,TGI,A498 renal,99.3 µM
same,TGI,A549 NSCLC,> 100 µM
same,TGI,ACHN renal,> 34.2 µM
same,TGI,BT-549 breast,> 100 µM
same,TGI,CAKI-1 renal,> 50.1 µM
same,TGI,COLO 205 colon,> 100 µM
same,TGI,DU-145 prostate,> 100 µM
same,TGI,EKVX NSCLC,> 100 µM
same,TGI,HCC-2998 colon,> 100 µM
same,TGI,HCT-116 colon,> 100 µM
same,TGI,HCT-15 colon,> 100 µM
same,TGI,HOP-92 NSCLC,> 100 µM
same,TGI,HS 578T breast,> 100 µM
same,TGI,HT29 colon,> 100 µM
same,TGI,IGROV1 ovarian,> 100 µM
same,TGI,K-562 leukemia,> 100 µM
same,TGI,KM12 colon,> 100 µM
same,TGI,LOX IMVI melanoma,> 100 µM
same,TGI,M14 melanoma,12.9 µM
same,TGI,MALME-3M melanoma,> 100 µM
same,TGI,MCF7 breast,> 100 µM
same,TGI,MDA-MB-231 breast,> 100 µM
same,TGI,MDA-MB-435,> 100 µM
same,TGI,MDA-N,> 100 µM
same,TGI,MOLT-4 leukemia,7.95 µM
same,TGI,NCI-H226 lung,> 100 µM
same,TGI,NCI-H23 lung,> 42.1 µM
same,TGI,NCI-H522 lung,> 100 µM
same,TGI,NCI/ADR-RES ovarian,> 100 µM
same,TGI,OVCAR-3 ovarian,> 100 µM
same,TGI,OVCAR-4 ovarian,> 100 µM
same,TGI,OVCAR-5 ovarian,> 100 µM
same,TGI,OVCAR-8 ovarian,> 100 µM
same,TGI,PC-3 prostate,> 100 µM
same,TGI,RPMI-8226 leukemia,> 100 µM
same,TGI,RXF 393 renal,> 100 µM
same,TGI,SF-268 CNS,> 100 µM
same,TGI,SF-295 CNS,> 100 µM
same,TGI,SF-539 CNS,> 100 µM
same,TGI,SK-MEL-2 melanoma,> 100 µM
same,TGI,SK-MEL-28 melanoma,> 100 µM
same,TGI,SK-MEL-5 melanoma,> 100 µM
same,TGI,SK-OV-3 ovarian,> 100 µM
same,TGI,SN12C renal,> 100 µM
same,TGI,SNB-19 CNS,> 100 µM
same,TGI,SNB-75 CNS,> 100 µM
same,TGI,SR leukemia,> 88.6 µM
same,TGI,SW-620 colon,> 100 µM
same,TGI,T-47D breast,> 100 µM
same,TGI,TK-10 renal,> 100 µM
same,TGI,U251 CNS,> 100 µM
same,TGI,UACC-257 melanoma,> 100 µM
same,TGI,UACC-62 melanoma,> 100 µM
same,TGI,UO-31 renal,> 100 µM
CCCCCCCC/C=C\CCCCCCC/C=C1/C[C@](/C=C/C(=O)OC)(CO)OC1=O,TGI,786-0 renal,10.3 µM
same,TGI,A498 renal,21.2 µM
same,TGI,A549 NSCLC,17.3 µM
same,TGI,ACHN renal,16.7 µM
same,TGI,BT-549 breast,17.8 µM
same,TGI,CAKI-1 renal,12.5 µM
same,TGI,COLO 205 colon,5.04 µM
same,TGI,DU-145 prostate,23.4 µM
same,TGI,EKVX NSCLC,23 µM
same,TGI,HCC-2998 colon,10.1 µM
same,TGI,HCT-116 colon,15.5 µM
same,TGI,HCT-15 colon,20.5 µM
same,TGI,HL-60(TB) leukemia,10.3 µM
same,TGI,HOP-62 NSCLC,19 µM
same,TGI,HOP-92 NSCLC,20.3 µM
same,TGI,HS 578T breast,9.29 µM
same,TGI,HT29 colon,20.9 µM
same,TGI,IGROV1 ovarian,23.7 µM
same,TGI,K-562 leukemia,> 32.5 µM
same,TGI,KM12 colon,23.9 µM
same,TGI,LOX IMVI melanoma,12.8 µM
same,TGI,M14 melanoma,11.6 µM
same,TGI,MALME-3M melanoma,8.74 µM
same,TGI,MCF7 breast,20.8 µM
same,TGI,MDA-MB-231 breast,17.7 µM
same,TGI,MDA-MB-435,7.41 µM
same,TGI,MDA-N,3.19 µM
same,TGI,MOLT-4 leukemia,> 21.5 µM
same,TGI,NCI-H226 lung,15.8 µM
same,TGI,NCI-H23 lung,24.9 µM
same,TGI,NCI-H460 lung,19.9 µM
same,TGI,NCI-H522 lung,17.6 µM
same,TGI,NCI/ADR-RES ovarian,24 µM
same,TGI,OVCAR-3 ovarian,24 µM
same,TGI,OVCAR-4 ovarian,16.9 µM
same,TGI,OVCAR-5 ovarian,20.3 µM
same,TGI,OVCAR-8 ovarian,19.2 µM
same,TGI,PC-3 prostate,14.5 µM
same,TGI,RXF 393 renal,28.5 µM
same,TGI,SF-268 CNS,19.7 µM
same,TGI,SF-295 CNS,17.1 µM
same,TGI,SF-539 CNS,2.84 µM
same,TGI,SK-MEL-2 melanoma,27.6 µM
same,TGI,SK-MEL-28 melanoma,10.2 µM
same,TGI,SK-MEL-5 melanoma,18 µM
same,TGI,SK-OV-3 ovarian,24.3 µM
same,TGI,SN12C renal,14.8 µM
same,TGI,SNB-19 CNS,20.3 µM
same,TGI,SNB-75 CNS,20.4 µM
same,TGI,SR leukemia,> 31.7 µM
same,TGI,SW-620 colon,11.4 µM
same,TGI,T-47D breast,19.8 µM
same,TGI,TK-10 renal,15.3 µM
same,TGI,U251 CNS,21.2 µM
same,TGI,UACC-257 melanoma,29.6 µM
same,TGI,UACC-62 melanoma,22.4 µM
same,TGI,UO-31 renal,15 µM
